Results taken from publication PMC3433414, “Oral Administration of the Pimelic Diphenylamide HDAC Inhibitor HDACi 4b Is Unsuitable for Chronic Inhibition of HDAC Activity in the CNS In Vivo” (PLoS ONE, 2012).

Assays:
human recombinant HDAC2 = target: T1, human recombinant HDAC2 (Homo sapiens, UniProt Q92769); test: Two-step fluorogenic deacetylase assay, recombinant HDAC2; type: biochemical
T1 construct: purified recombinant human full length HDAC1 (cat# 50051), HDAC2 (cat# 50052); purchased BPS Bioscience (San Diego, CA) 50052
T1 sequence (Q92769 whole entry): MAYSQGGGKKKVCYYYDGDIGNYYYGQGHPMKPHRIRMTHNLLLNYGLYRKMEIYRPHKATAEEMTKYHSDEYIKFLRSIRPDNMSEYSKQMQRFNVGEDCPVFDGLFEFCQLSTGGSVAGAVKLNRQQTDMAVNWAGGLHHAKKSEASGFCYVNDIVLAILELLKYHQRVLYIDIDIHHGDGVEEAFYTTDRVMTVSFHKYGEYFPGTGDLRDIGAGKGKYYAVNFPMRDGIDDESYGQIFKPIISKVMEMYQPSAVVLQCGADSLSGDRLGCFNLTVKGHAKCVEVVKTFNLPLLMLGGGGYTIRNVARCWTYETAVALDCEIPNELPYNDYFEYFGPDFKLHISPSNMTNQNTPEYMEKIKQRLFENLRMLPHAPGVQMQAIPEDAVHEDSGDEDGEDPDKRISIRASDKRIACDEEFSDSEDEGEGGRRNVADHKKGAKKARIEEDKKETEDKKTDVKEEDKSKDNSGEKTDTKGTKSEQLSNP
Source text: To assess the biochemical and cellular potency of 4b and its conversion products/metabolites, we utilized the two-step fluorogenic assay which measures the HDAC-mediated catalytic conversion of synthetic acetylated lysine substrates. In brief, on deacetylation of the substrates by HDAC activity, a protease site is unmasked which allows subsequent trypsin-mediated cleavage and release of the highly flourescent AMC molecules in a subsequent step of the assay. The substrates used were Lys_Ac_AMC (Bachem I-1875) for HDAC3 and (Ac)Arg-Gly-Lys(Ac) (Bachem I-1925) for HDAC1 and HDAC2. […] However, the relatively labile and sterically more demanding trifluoracetyl group is readily hydrolyzed by the catalytically less avid Class IIa enzymes, allowing measurement of Class IIa activity using the 2-step fluorogenic assay. […]
For evaluation of the class selectivity of the compounds, we assessed inhibition against purified recombinant human full length HDAC1 (cat# 50051), HDAC2 (cat# 50052), HDAC3-NcoR2 (cat# 50003) and HDAC8 (cat# 50008): as representative of Class I activity; catalytic domain HDAC4(αα 648–1057), HDAC5 (αα 657–1123; cat # 50005), HDAC7 (αα 518-end; cat # 50007) and HDAC9 (αα 604–1066; cat # 50009) activity: representing all Class IIa activity; and full length HDAC6 (cat#50006): representing Class IIb activity. […]

CRF1 (h) = target: T2, CRF1 (h) (Homo sapiens, UniProt P34998); test: Cerep binding, agonist radioligand; settings: read-out: % inhibition of control specific binding
T2 construct: purchased Cerep (Diversity Profile)
T2 sequence (P34998 24-415): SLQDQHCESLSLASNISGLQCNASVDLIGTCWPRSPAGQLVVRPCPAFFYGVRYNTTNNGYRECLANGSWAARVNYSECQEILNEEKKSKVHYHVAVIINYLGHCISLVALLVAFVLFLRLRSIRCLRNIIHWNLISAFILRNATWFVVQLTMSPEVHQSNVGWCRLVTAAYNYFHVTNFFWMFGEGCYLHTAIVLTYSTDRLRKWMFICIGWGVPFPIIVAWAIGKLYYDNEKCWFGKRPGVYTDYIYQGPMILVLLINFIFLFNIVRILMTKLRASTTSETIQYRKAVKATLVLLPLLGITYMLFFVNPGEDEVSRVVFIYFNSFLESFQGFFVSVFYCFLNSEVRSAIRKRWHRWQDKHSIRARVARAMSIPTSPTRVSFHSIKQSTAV
Source text: (§1) In addition to the HDAC profiling performed, we also queried 4b for any apparent potential off-target effects, which could complicate any finding of efficacy or adverse events in vivo due to ‘polypharmacy’. This was accomplished by screening against a ‘diversity panel’ of 72 binding and 29 enzyme assays, comprised of roughly equal numbers of selective central and peripheral therapeutically relevant targets (Cerep Diversity Profile). This panel included representative targets from diverse enzyme families, G protein coupled receptors, steroid nuclear receptors, voltage- and ligand-gated ion channels. While not totally inclusive, it is a useful tool for discovery compounds to assess their viability as proof of concept molecules to specifically query a particular target. 4b was initially screened at 10 µM in duplicate. The full set of results is provided as Table S1. […] This clean in vitro profile was considered acceptable to proceed to ADME and pharmacokinetic studies.

B1 (h) = target: T3, B1 (h) (Homo sapiens, UniProt P46663); test: Cerep binding, agonist radioligand; settings: read-out: % inhibition of control specific binding
T3 construct: purchased Cerep (Diversity Profile)
T3 sequence (P46663 whole entry): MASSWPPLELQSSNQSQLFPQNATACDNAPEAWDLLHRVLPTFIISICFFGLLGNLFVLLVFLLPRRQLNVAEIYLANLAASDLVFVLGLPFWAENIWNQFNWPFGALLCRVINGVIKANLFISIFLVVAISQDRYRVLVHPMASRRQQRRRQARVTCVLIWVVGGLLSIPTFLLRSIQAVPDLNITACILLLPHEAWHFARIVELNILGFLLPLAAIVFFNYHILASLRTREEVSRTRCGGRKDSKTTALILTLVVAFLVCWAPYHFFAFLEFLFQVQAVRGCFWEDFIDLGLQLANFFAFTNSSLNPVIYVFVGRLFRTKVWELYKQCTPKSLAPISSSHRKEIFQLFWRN
Source text: as §1

BZD (central) = test: Cerep binding, agonist radioligand; settings: 10 μM
Source text: as §1

ETA (h) = target: T4, ETA (h) (Homo sapiens, UniProt P25101); test: Cerep binding, agonist radioligand; settings: read-out: % inhibition of control specific binding
T4 construct: purchased Cerep (Diversity Profile)
T4 sequence (P25101 21-427): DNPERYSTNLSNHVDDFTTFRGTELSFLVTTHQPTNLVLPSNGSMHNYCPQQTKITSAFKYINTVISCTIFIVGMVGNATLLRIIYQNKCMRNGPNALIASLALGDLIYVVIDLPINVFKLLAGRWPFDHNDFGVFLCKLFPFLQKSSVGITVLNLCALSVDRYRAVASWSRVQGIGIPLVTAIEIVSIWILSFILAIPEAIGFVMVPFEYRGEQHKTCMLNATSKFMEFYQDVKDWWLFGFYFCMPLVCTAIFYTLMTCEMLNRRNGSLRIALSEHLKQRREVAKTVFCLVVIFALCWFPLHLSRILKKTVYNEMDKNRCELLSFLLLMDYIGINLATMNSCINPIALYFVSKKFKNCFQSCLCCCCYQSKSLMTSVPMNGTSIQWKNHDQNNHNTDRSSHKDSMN
Source text: as §1

P2X = test: Cerep binding, agonist radioligand; settings: 10 μM
Source text: as §1

SMILES: Nc1ccccc1NC(=O)CCCCCC(=O)Nc1ccccc1 [Compound 4b]
- IC50 (human recombinant HDAC2): 2.23 µM
- inhibition at 10 µM (CRF1 (h)): 0%
- inhibition at 10 µM (B1 (h)): 5%
- % inhibition of control specific binding (BZD (central)): 4%

SMILES: O=C(CCCCCc1nc2ccccc2[nH]1)Nc1ccccc1 [Compound C1, 6-(1-H-benzo[d]imidazol-2-yl)-N-phenylhexanamide]
- inhibition at 10 µM (ETA (h)): 2%
- % inhibition of control specific binding (P2X): 5%
